Test results taken from patent US20230226041A1, “COMPOUNDS FOR THE TREATMENT OF VIRAL INFECTIONS” (Merck Patent GmbH, priority 2020, published 2023).
Read-outs that look alike come from different tables or passages of the source.

Tested on: SARS-CoV2/ZG/297-20
Format: cell-based
Details: Calu-3 cells infected with SARS-CoV-2, MOI 0.05, observed for 120 hours, level about equal to uninfected cells

SMILES | confluence of Calu-3 cells as compared to the infected cells (concentrations between 4 and 27 μM, FIG. 1) | confluence of Calu-3 cells as compared to the infected cells (concentrations between 16 and 81 μM, FIG. 2)
COc1cc2ncc3c(c2cc1-c1cn(C)nc1C)n(-c1c(F)cncc1OC)c(=O)n3C (atropisomer, axis not shown; (Sa)) [NCE4, 8-(1,3-dimethyl-1H-pyrazol-4-yl)-1-(Sa)-(3-fluoro-5-methoxy-pyridin-4-yl)-7-methoxy-3-methyl-1,3-dihydro-imidazo[4,5-c]quinolin-2-one] | significant retainment or improvement of the confluence of the cells | 
COc1cc2ncc3c(c2cc1-c1cnn(C)c1)n(-c1ccc(C#N)cc1F)c(=O)n3C [NCE16, 3-fluoro-4-[7-methoxy-3-methyl-8-(1-methyl-1H-pyrazol-4-yl)-2-oxo-2,3-dihydro-imidazo[4,5-c]quinolin-1-yl]-benzonitrile] |  | significant retainment or improvement of the confluence of the cells
